One may read the IC50 as the concentration that inhibits the measured activity by half. In general, EC50 refers to the concentration at which the effect is half-maximal. A high value points to a need for much substance. Usually Ki stands for the dissociation constant of the complex between target and ligand, obtained from inhibition or displacement. Low values mean tighter binding, high ones weaker binding.

The structures appear in SMILES notation.

For one test, the system named is Rat1. The experiment in a line: Inhibition of H-ras-transformed Rat1 cells. Type of test: functional, cell-based. The note with it: Rattus norvegicus.
Test [1] deals with T1, Protein farnesyltransferase (Homo sapiens, UniProt P49354+P49356). Kind of test: Inhibitory concentration against farnesyltransferase was determined. Type of test: protein-complex assay.
Test [2] has as its target T2, Geranylgeranyl transferase type I (Homo sapiens, UniProt P49354+P53609). Kind of test: Inhibition binding constant Geranylgeranyl transferase type I. The class given is protein-complex assay.
Test [3] deals with T1, Protein farnesyltransferase. Kind of test: Effective concentration required to inhibit HDJ2 farnesylation in PSN-1 cells. The class given is functional, cell-based.
The subject of a further test is NIH3T3. The experiment in a line: Inhibition of growth of H-ras-transformed 3T3 fibroblasts.
Test [4] addresses T2, Geranylgeranyl transferase type I. The experiment in a line: Inhibition binding constant against Geranylgeranyl transferase type I. The class given is protein-complex assay.
For test [5], the target named is T1, Protein farnesyltransferase. The experiment in a line: Inhibition binding constant against Farnesyltransferase. The class given is protein-complex assay.

In the test on Rat1, `CC[C@@H](C)[C@@H](CN(CC(=O)N[C@@H](CCSC)C(=O)OC)Cc1cccc2ccccc12)NC(=O)Cc1cncn1Cc1ccc(C#N)cc1` returned an IC50 of 630 nM. This lies in the sub-micromolar range. `CC[C@@H](C)[C@@H](CO[C@@H](Cc1ccccc1)C(=O)N[C@@H](CCS(C)(=O)=O)C(=O)O)NC[C@@H](N)S`: the IC50 in test [1] came to 1.8 nM.

`COC(=O)[C@H](CC(C)C)NC(=O)c1ccc(NC[C@@H](N)CS)cc1-c1cccc2ccccc12` yielded an IC50 in test [2] of 54 nM.

Compound `O=C(c1ccccc1OC(F)(F)F)N1CCN(Cc2cnc[nH]2)c2ccc(-c3ccncc3)cc2C1` showed an IC50 in test [1] of 24 nM. That is a double-digit nanomolar value. Take `N#Cc1ccc2cc1Oc1ccc3c(c1)[C@@H](CCC3)N1CC[C@@H](NCc3cncn3C2)C1=O`: the IC50 in test [1] was less than 1 nM. In test [3], this compound registered an EC50 of 0.18 nM.

`N#Cc1ccc2cc1Oc1ccc3cccc(c3c1)N1CCN(CC1=O)Cc1cncn1C2`: the IC50 in test [1] came out at 0.2 nM. In the test on NIH3T3, `CSCC[C@H](NC(=O)c1cc(NC[C@@H]2C[C@H](SC(=O)c3cccnc3)CN2)ccc1CCc1ccc(F)cc1)C(=O)OC(C)C` gave an IC50 of 49 nM. Also, the figures for the Ki in test [4] and in test [5] were 8 nM and less than 1 nM, respectively. For `CC(=O)N1CCC(=C2c3ccc(Cl)cc3CCc3cccnc32)CC1` [SCH-37370], the midpoint of inhibition in test [1], the IC50, lay at 27000 nM.

These data come from ChEMBL document CHEMBL1149326, “Inhibitors of farnesyltransferase: a rational approach to cancer chemotherapy?” (J Med Chem, 2004).
